US9078949B2, “Compositions of partially deacetylated chitin derivatives” (GENIS HF., priority 2005, dated 2015)
Like-named read-outs stand apart in the source and are kept apart here. Each block holds one molecule with its values, some of them ahead of it.

Experiments:
[1] = Absorption of chitooligosaccharides into the blood of a human volunteer (MALDI-TOF MS, GPC, HPIEC); assay type: in vivo; conditions: for Mass calc (HPIEC homologue): blood sample (7.0 ml) after 3 weeks of ChOS consumption
Procedure: Chitooligomers composed of N-acetyl glucosamine and glucosamine were prepared by Genis, Reykjavik, Iceland. Briefly, chitin was partially deacetylated in alkali, washed and hydrolysed to oligomers by chitinase. Oligomers were ultrafiltrated, desalted and spray dried to a fine white powder. Average degree of deacetylation was 47% (FA 0.53). Analysis and quantification of oligomers and homologues were performed, using the same methods as for the blood.
A voluntary subject was consuming daily 1.8 g of ChOS (Genis ehf; S41124-1K) for a period of 4 weeks. Blood samples were collected within a period of 6 weeks. The first sample was taken before consumption of ChOS. The following 4 samples were taken weekly starting 1 week after the first consumption. Sample 6 was taken 2 weeks after stopping the consumption of ChOS. The volume of each sample was 7.0 ml. The blood samples were centrifuged for 30 min at 3000 rpm. The serum was collected. Methanol and sodium chloride were added to a final concentration of 30% methanol and 0.1 mg/ml sodium chloride followed by another centrifugation step. Samples of 500 μl were filtered through 3 kDa cut-off membranes (ultrafiltration). The supernatant was filled up for 3 times. Appropriate filtrates were pooled, the methanol was removed in vacuum, and the samples were finally lyophilised.
The lyophilised samples (app. 100 μg) were redissolved in 100 μl of methanol/water (v/v 50:50). An aliquot of the solution was mixed on the target with 2 μl of a solution of DHB in 30% aqueous ethanol ([…]). The drop was dried under a gentle stream of air. Mass spectra were recorded on a Bruker Reflex II (Daltonik, Bremen, Germany) in the positive ion mode. For ionisation, a nitrogen laser (337 nm, 3 ns pulse width, 3 Hz) was used. All spectra were measured in the reflector mode using external calibration. Monoisotopic peaks are labelled in all mass spectra.
The lyophilised samples (appr. 100 μg) were redissolved in 100 μl of methanol/deuterium oxide (v/v 50:50). A 10-fold molar excess of hexadeutero acetic anhydride was added as well as 3 drops of glacial tetradeutero acetic acid. The solution was stirred at 30° C. for 12 h. The reaction was stopped by addition of an equimolar amount of ammonia. The solutions were lyophilised and redissolved in 100 μl of ammonia. The concentration of ammonia was set to a 10-fold molar excess with respect to the moles of N-acetyl glucosamine units (GlcNAc or A). The solution was stirred at 22° C. over night. The ammonia was removed in vacuum, followed by lyophilisation of the samples. […] The concentration of potassium hydroxide was set to a 2-fold molar excess with respect to the moles of GlcNAc units. The solution was stirred for 10 h at r. t. neutralized by addition of cation exchange resin (H^+ form) followed by filtration and lyophilisation of the filtrate.
MALDI-TOF mass spectra were taken as described in Example 4. The quantification of relative signal intensities leads to the composition of homologues in the mixture.
The samples are prepared as described under Homologue determination by MALDI-TOF MS. Subsequently, a standard was added to each sample. The standard, a chitin oligomer (An), has to be of the same DP+/−1 as the analyte. A serial dilution of this standard was used. A comparison of the signal intensities of the analyte with the standard gives the concentration of the analyte. […]
Mixtures of homologues (and oligomers) obtained from the GPC separation were analysed by HPIEC. […]

[2] = molecular target: T1, Chitinase A (Serratia marcescens, UniProt P07254); assay: Blocking of Chitinase A activity (4-MU-A3 substrate, fluorescence); assay type: biochemical; conditions: for blocking of chitinase activity: pH 7.4
T1 sequence (P07254 24-563): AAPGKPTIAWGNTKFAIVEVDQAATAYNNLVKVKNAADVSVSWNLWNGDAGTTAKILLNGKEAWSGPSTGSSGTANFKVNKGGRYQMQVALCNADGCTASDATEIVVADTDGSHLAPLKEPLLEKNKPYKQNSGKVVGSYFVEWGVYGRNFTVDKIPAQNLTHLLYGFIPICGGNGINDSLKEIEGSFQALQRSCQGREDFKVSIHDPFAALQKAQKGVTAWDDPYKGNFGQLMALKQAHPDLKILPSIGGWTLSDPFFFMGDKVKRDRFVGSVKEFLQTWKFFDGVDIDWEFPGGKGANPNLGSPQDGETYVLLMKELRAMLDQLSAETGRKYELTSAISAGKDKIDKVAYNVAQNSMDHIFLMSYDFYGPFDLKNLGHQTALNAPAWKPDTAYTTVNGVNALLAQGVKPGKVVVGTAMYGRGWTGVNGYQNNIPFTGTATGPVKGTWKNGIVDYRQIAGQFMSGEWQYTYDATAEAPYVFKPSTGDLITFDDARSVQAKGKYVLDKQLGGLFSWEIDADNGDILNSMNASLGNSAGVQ
Procedure: Chitooligosaccharides (ChOS) (lots No. G020418 and G020218) were fractionated into homologue fractions, either by cation exchange chromatography or gel permeation chromatography or by the combination of both methods. The products were freeze dried and analysed for structure and sequence by MALDI-TOF mass spectrometry. Three other un-fractionated ChOS lots from Genis were also analysed by the same MALDI-TOF method (lots No. G040823, G050421 and G050421UF; where UF stands for ultrafiltrated through 1 kDa membrane to reduce the content of DP≦5).
A purified Chitinase A preparation from S. marcescens was used as a standard Family 18 chitinase, and 4-methylumbelliferyl-beta-D-N,N′-triacetylchitotrioside (4-MU-A3), a chitin tetramer (A4) analogue, was used as a standard chitinase substrate.
The standard Chitinase A solution was 0.5 nM (500 pM) in 0.1 mg/ml BSA, 50 mM phosphate buffer pH 7.4 (Chit-A sol.) and the substrate solution was 40 μM 4-MU-A3 in 50 mM phosphate buffer pH 7.4.
Different concentration of each pure ChOS homologue (usually 0, 25, 50, 100, 200, 400 and 800 μM) was made in the substrate buffer. For the assay, 25 μl of the Chit-A solution was mixed with 25 μl of the substrate/blocking solution, incubated at 37° C. for 10 min. The reaction was stopped with 1.95 ml 0.2 M sodium […] buffer (Na2CO3). The formation of the product, 4-Methylumbelliferone (4-MU) was read for each reaction in a Perken-Elmer LS SOB Fluorometer. The excitation wavelength was 380 nm (5 nm adjusting slit) and the emission wavelength was 460 nm (4 nm adjusting slit). Each reaction was read in triplicate. […] Affinity of each homologue was calculated as inverted IC50.
Even tough the chitinase A has an optimal activity at pH 5.5, the pH for the blocking experiments was adjusted at pH 7.4. This was done in order to free the amine groups of ChOS from protons, since earlier pilot experiments performed at pH 5.5 indicated low blocking activities of the ChOS homologues. Also this pH better resembles the physiological pH of blood and other physiological fluids, better reflecting the behaviour of the oligosaccharides in the human body.

[3] = molecular target: T1, Chitinase A; assay: Cleavage of oligomers by Chitinase A judged by MALDI-TOF (biostability); assay type: in vitro ADME, S. marcescens; conditions: assay conditions (pH 5.5 and pH 7.4)
[4] = molecular target: HC gp-39 (39-kDa Human Cartilage Glycoprotein) (Homo sapiens, UniProt P36222); assay: Binding to HC gp-39 by intrinsic tryptophan fluorescence
Sequence of HC gp-39 (39-kDa Human Cartilage Glycoprotein) (P36222 22-383): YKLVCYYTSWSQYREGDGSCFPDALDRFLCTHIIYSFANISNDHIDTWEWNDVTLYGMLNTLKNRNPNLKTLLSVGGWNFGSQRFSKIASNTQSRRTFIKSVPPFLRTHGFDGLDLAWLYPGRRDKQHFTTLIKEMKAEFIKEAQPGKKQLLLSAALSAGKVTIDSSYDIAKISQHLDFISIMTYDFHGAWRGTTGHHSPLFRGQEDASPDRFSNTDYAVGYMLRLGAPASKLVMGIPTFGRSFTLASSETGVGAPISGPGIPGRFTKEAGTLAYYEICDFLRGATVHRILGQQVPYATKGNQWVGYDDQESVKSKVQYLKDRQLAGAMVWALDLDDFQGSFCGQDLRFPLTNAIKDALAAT
Procedure: The affinities of non-covalent complexes between ChOS and HC gp-39 were analysed making use of the change of the intrinsic tryptophan fluorescence of the protein under binding conditions. The change of fluorescence intensity is caused by ligand-induced changes of the solvent cover of tryptophan residues and positively correlated with the sugar concentration.
HC gp-39 was dissolved in 25 mM Tris-HCl buffer pH 7.4 containing 1 mM dithiothreitol to a final concentration of 1.00 μM (protein solution). Different concentrations of homologues were prepared in 25 mM Tris-HCl buffer pH 7.4 containing 1 mM dithiothreitol (sugar solution). […] The fluorescence was read for each reaction in a Perkin-Elmer LS SOB fluorescence spectrometer (Perkin-Elmer, Überlingen, Germany). […] Each reaction was measured in triplicate.
From the row fluorescence data the fluorescence of the blank was subtracted. F-F0 was plotted versus the concentration of the homologue and the data were fitted by non-linear regression to a one-site saturation model employing SigmaPlot® software to obtain binding isotherms. y=Bmax*x/(Kd+x) Bmax: fluorescence intensity for a saturated binding domain of HC gp-39 Kd: dissociation constant.

- dissociation constant [4]: μmolar range
- blocking of chitinase activity [2]: poor blockers
- IC50 ([2]; pH 7.4, 37° C., 10 min, 4-MU-A3 substrate, NB = no blocking found, read-out: IC50): 1.98 mM
Structure (SMILES): N[C@H]1[C@H](O[C@H]2[C@H](O)[C@@H](N)[C@H](O[C@H]3[C@H](O)[C@@H](N)[C@H](O[C@H]4[C@H](O)[C@@H](N)[C@H](O[C@H]5[C@H](O)[C@@H](N)[C@H](O[C@H]6[C@H](O)[C@@H](N)C(O)O[C@@H]6CO)O[C@@H]5CO)O[C@@H]4CO)O[C@@H]3CO)O[C@@H]2CO)O[C@H](CO)[C@@H](O)[C@@H]1O (stereo partly drawn) [Homologue D6]

- blocking of chitinase activity [2]: poor blockers
Structure (SMILES): NC1C(OC2C(CO)OC(OC3C(CO)OC(OC4C(CO)OC(OC5C(CO)OC(OC6C(CO)OC(OC7C(CO)OC(OC8C(CO)OC(OC9C(CO)OC(O)C(N)C9O)C(N)C8O)C(N)C7O)C(N)C6O)C(N)C5O)C(N)C4O)C(N)C3O)C(N)C2O)OC(CO)C(O)C1O (stereo not drawn) [Homologue D9]

- blocking of chitinase activity [2]: poor blockers
Structure (SMILES): NC1C(OC2C(CO)OC(OC3C(CO)OC(OC4C(CO)OC(OC5C(CO)OC(OC6C(CO)OC(OC7C(CO)OC(OC8C(CO)OC(OC9C(CO)OC(OC%10C(CO)OC(OC%11C(CO)OC(OC%12C(CO)OC(O)C(N)C%12O)C(N)C%11O)C(N)C%10O)C(N)C9O)C(N)C8O)C(N)C7O)C(N)C6O)C(N)C5O)C(N)C4O)C(N)C3O)C(N)C2O)OC(CO)C(O)C1O (stereo not drawn) [Homologue D12]

Continued, molecule first:

Structure (SMILES): CC(=O)N[C@H]1[C@H](O[C@H]2[C@H](O)[C@@H](NC(C)=O)C(O)O[C@@H]2CO)O[C@H](CO)[C@@H](O)[C@@H]1O (stereo partly drawn) [Homologue A2]
- Mass calc (HPIEC homologue) ([1]; GPC, HPIEC and MALDI-TOF): 270 μg
- Conc (HPIEC homologue) ([1]; blood sample after 3 weeks of ChOS consumption, GPC, HPIEC and MALDI-TOF): 39 μg/mL
- oligomers observed in blood sample ([1]; post 1 week of ChOS consumption, 1.8 g daily): traces

Structure (SMILES): CC(=O)N[C@H]1[C@H](O[C@H]2[C@H](O)[C@@H](NC(C)=O)C(O)O[C@@H]2CO)O[C@H](CO)[C@@H](O[C@@H]2O[C@H](CO)[C@@H](O)[C@H](O)[C@H]2NC(C)=O)[C@@H]1O (stereo partly drawn) [Homologue A3]
- Mass calc (HPIEC homologue) ([1]; GPC, HPIEC and MALDI-TOF): 30 μg
- concentration at 3 weeks ([1]; human, serum, oral, 1.8 g daily (ChOS mixture), blood sample after 3 weeks of ChOS consumption, GPC, HPIEC and MALDI-TOF, read-out: Conc (HPIEC homologue)): 4000 ng/mL
- IC50 [2]: 0.219 mM

Structure (SMILES): CC(=O)N[C@H]1[C@H](O[C@H]2[C@H](O)[C@@H](NC(C)=O)[C@H](O[C@H]3[C@H](O)[C@@H](NC(C)=O)C(O)O[C@@H]3CO)O[C@@H]2CO)O[C@H](CO)[C@@H](O[C@@H]2O[C@H](CO)[C@@H](O[C@@H]3O[C@H](CO)[C@@H](O[C@@H]4O[C@H](CO)[C@@H](O)[C@H](O)[C@H]4NC(C)=O)[C@H](O)[C@H]3NC(C)=O)[C@H](O)[C@H]2NC(C)=O)[C@@H]1O (stereo partly drawn) [Homologue A6]
- cleavage by Chitinase A [3]: cleaved
